Measurements published in article PMC6403271, “Characterization, mechanism of action and optimization of activity of a novel peptide-peptoid hybrid against bacterial pathogens involved in canine skin infections” (Scientific Reports, 2019).
Square brackets hold non-standard residues; d marks the D form. Peptide text beside a SMILES is read from it. N(1-naphthylmethyl)Gly = O=C(O)CNCc1cccc2ccccc12; 1Nal = N[C@@H](Cc1cccc2ccccc12)C(=O)O; 2Nal = N[C@@H](Cc1ccc2ccccc2c1)C(=O)O; d1Nal = N[C@H](Cc1cccc2ccccc12)C(=O)O; d2Nal = N[C@H](Cc1ccc2ccccc2c1)C(=O)O; Nle = CCCC[C@H](N)C(=O)O; Nphe = O=C(O)CNCc1ccccc1; NBuGly = CCCCNCC(=O)O; Nlys = NCCCCNCC(=O)O

Key:
[1] = tested on: MRSP C22963; type: cell-based, Staphylococcus pseudintermedius; details: 18 h
Procedure: (§1) Activity of B1 was tested on 50P. aeruginosa isolates and 57S. pseudintermedius isolates (including 7 MRSP) that had been isolated in the diagnostic laboratory Sund Vet Diagnostik (University of Copenhagen) from various infections in dogs between 2009 and 2011. Representative MRSP (C22963), MSSA, and P. aeruginosa (26314) were used for testing the first set of B1 analogues.
(§2) MIC determination was performed by broth microdilution according to the Clinical and Laboratory Standard Institute (CLSI, M31-A3, 2008)[62]. In brief, each bacterial strain was diluted to concentration of 5 × 10^5 CFU/mL in Mueller Hinton broth II (MHB II) media (Oxoid) and added to a two-fold serial dilution of peptides and peptide-peptoid hybrids concentrations ranging from 1 to 64 µg/ml in 96-well plates (Nunc Internationals, Rochester, NY). The MICs were determined as a lowest concentration showing no visible growth after incubation for 18 hours at 37 °C. Experiments were performed in triplicates on two different days.

[2] = tested on: MSSA (ATCC 29213); type: cell-based, Staphylococcus aureus; details: ATCC 29213, 18 h
Procedure: as §1, §2

[3] = tested on: P. aeruginosa (26314); type: cell-based, Pseudomonas aeruginosa; details: 26314, 18 h
Procedure: Activity of B1 was tested on […]. aeruginosa isolates and […]. pseudintermedius isolates (including 7 MRSP) that had been isolated in the diagnostic laboratory Sund Vet Diagnostik (University of Copenhagen) from various infections in dogs between 2009 and 2011. Representative […], and P. aeruginosa (26314) were used for testing the first set of B1 analogues. For antibacterial spectrum the following strains were used: Corynebacterium auriscanis, 31551, (54 C6, dog, ear, 2013); Enterococcus faecalis, 27404, (17 C7, dog, wound, 2011); Enterococcus faecium, 30951, (24 C1, dog, ear, 2013); Streptococcus canis, 26740-1, (14 H1, dog, ear, 2010); Staphylococcus aureus, 27266, (16 G9, dog, skin, 2010); Staphylococcus aureus, 27266, (16 G9, dog, skin, 2010); Staphylococcus pseudintermedius 22963, (3 B9, dog, 2007). Acinetobacter baumannii, 27065, (16 D1, dog, wound, 2010); E. coli, 30235, 23 A6, dog, wound, 2012; Klebsiella pneumoniae, 26233, (11 H5, dog, wound, 2010); Pasteurella canis, 31096, (24 C8, dog, skin, 2013); Proteus mirabilis, 25178, (9 A4, dog, ear, 2009); Pseudomonas aeruginosa 26314, 12 C5, dog, urine, 2010). MIC determination was performed by broth microdilution according to the Clinical and Laboratory Standard Institute (CLSI, […]-A3, 2008)[62]. In brief, each bacterial strain was diluted to concentration of 5 × 10^5 CFU/mL in Mueller Hinton broth II (MHB II) media (Oxoid) and added to a two-fold serial dilution of peptides and peptide-peptoid hybrids concentrations ranging from 1 to 64 μg/ml in 96-well plates (Nunc Internationals, Rochester, NY). The MICs were determined as a lowest concentration showing no visible growth after incubation for 18 hours at 37 °C. Experiments were performed in triplicates on two different days.

[4] = type: cell-based, human; details: human
Procedure: (§3) Briefly, two-fold serial dilutions (2.35 to 150 μM) of compounds in phosphate buffer saline (PBS) were mixed with equal volume of 0.5% v/v suspension of fresh human red blood cells (RBC) in the same buffer. After 1 h incubation at 37 °C, plates were centrifuged and aliquots of the supernatants were transferred to clear 96-well plates. Absorbance at 414 nm was measured and normalized using a negative (PBS, 0%) and a positive (melittin, 100%) control. The EC10 and EC50 are concentrations at which 10% and 50% of RBC were lysed, respectively, as interpolated graphically by the y-axis intersection of the plotted data.

[5] = tested on: human red blood cells; type: cell-based; details: for EC50: red cells of human, 1 h
Procedure: as §3

Row | SMILES | Minimum Inhibitory Concentration MRSP C22963 [1] [µg/mL] | Minimum Inhibitory Concentration MSSA (ATCC 29213) [2] [µg/mL] | Minimum Inhibitory Concentration P. aeruginosa (26314) [3] [µg/mL] | hemolysis at 1 h, 150 µM [4] [%] | Haemolysis EC10 [5] [µM] | EC50 [5] [µM]
1 | CC(C)C[C@H](NC(=O)[C@H](Cc1ccc2ccccc2c1)NC(=O)[C@H](Cc1ccccc1)NC(=O)[C@@H](N)Cc1ccc2ccccc2c1)C(=O)N[C@@H](CCCCN)C(=O)N[C@@H](CCCCN)C(=O)N[C@@H](CCCCN)C(N)=O [Compound 13, (2-Nal)Ala-Phe-(2-Nal)Ala-Leu-Lys-Lys-Lys] (H-[2Nal]F[2Nal]LKKK-NH2; N-terminus assumed) | 8 | 32 | >64 | 15 | 110 | –
2 | CCCCN(CC(=O)N[C@@H](CCCCN)C(=O)N[C@@H](CCCCN)C(=O)N[C@@H](CCCCN)C(N)=O)C(=O)CN(Cc1cccc2ccccc12)C(=O)CN(Cc1ccccc1)C(=O)CNCc1cccc2ccccc12 [Compound 4, (N1-Nal)Gly-(NPhe)Gly-(N1-Nal)Gly-(NBu)Gly-Lys-Lys-Lys] (H-[N(1-naphthylmethyl)Gly][Nphe][N(1-naphthylmethyl)Gly][NBuGly]KKK-NH2; N-terminus assumed) | 8 | 16 | 32 | 24 | 54 | –
3 | CC(C)C[C@H](NC(=O)CN(CCCCN)C(=O)CN(CCCCN)C(=O)CNCCCCN)C(=O)N[C@@H](Cc1ccc2ccccc2c1)C(=O)N[C@@H](Cc1ccccc1)C(=O)N[C@@H](Cc1ccc2ccccc2c1)C(N)=O [Compound 29, NLys-NLys-NLys-Leu-(2-Nal)Ala-Phe-(2-Nal)Ala] (H-[Nlys][Nlys][Nlys]L[2Nal]F[2Nal]-NH2; N-terminus assumed) | 4 to 8 | 16 to 32 | 32 | 46 | 9 | –
4 | CC(C)C[C@H](NC(=O)[C@H](CCCCN)NC(=O)[C@@H](N)CCCCN)C(=O)N[C@@H](CCCCN)C(=O)N[C@@H](Cc1cccc2ccccc12)C(=O)N[C@@H](Cc1ccccc1)C(=O)N[C@@H](Cc1cccc2ccccc12)C(N)=O [Compound 6, Lys-Lys-Leu-Lys-(1-Nal)Ala-Phe-(1-Nal)Ala] (H-KKLK[1Nal]F[1Nal]-NH2; N-terminus assumed) | 8 | 32 | 8 | 96 | 5 | 58
5 | CC(C)C[C@@H](NC(=O)[C@H](CCCCN)NC(=O)[C@H](CCCCN)NC(=O)[C@@H](N)CCCCN)C(=O)N[C@H](Cc1ccc2ccccc2c1)C(=O)N[C@H](Cc1ccccc1)C(=O)N[C@H](Cc1ccc2ccccc2c1)C(N)=O [Compound 16, Lys-Lys-Lys-leu-(2-Nal)ala-phe-(2-Nal)ala] (H-KKK[dL][d2Nal][dF][d2Nal]-NH2; N-terminus assumed) | 2 to 4 | 8 to 16 | 32 | 60 | 18 | 118
6 | CC(C)C[C@@H](NC(=O)[C@H](CCCCN)NC(=O)[C@@H](N)CCCCN)C(=O)N[C@@H](CCCCN)C(=O)N[C@H](Cc1ccc2ccccc2c1)C(=O)N[C@H](Cc1ccccc1)C(=O)N[C@H](Cc1ccc2ccccc2c1)C(N)=O [Compound 17, Lys-Lys-leu-Lys-(2-Nal)ala-phe-(2-Nal)ala] (H-KK[dL]K[d2Nal][dF][d2Nal]-NH2; N-terminus assumed) | 8 | 16 | 32 | 40 | 8 | –
7 | CC(C)C[C@H](NC(=O)[C@H](CCCCN)NC(=O)[C@@H](N)CCCCN)C(=O)N[C@@H](CCCCN)C(=O)N[C@@H](Cc1ccc2ccccc2c1)C(=O)N[C@@H](Cc1ccccc1)C(=O)N[C@@H](Cc1ccc2ccccc2c1)C(N)=O [Compound 8, Lys-Lys-Leu-Lys-(2-Nal)Ala-Phe-(2-Nal)Ala] (H-KKLK[2Nal]F[2Nal]-NH2; N-terminus assumed) | 8 | 16 | 32 | 34 | 56 | –
8 | CC(C)C[C@@H](NC(=O)[C@H](CCCCN)NC(=O)[C@H](CCCCN)NC(=O)[C@@H](N)CCCCN)C(=O)N[C@H](Cc1cccc2ccccc12)C(=O)N[C@H](Cc1ccccc1)C(=O)N[C@H](Cc1cccc2ccccc12)C(N)=O [Compound 15, Lys-Lys-Lys-leu-(1-Nal)ala-phe-(1-Nal)ala] (H-KKK[dL][d1Nal][dF][d1Nal]-NH2; N-terminus assumed) | 2 | 8 | 8 | 88 | 8 | 40
9 | CCCC[C@H](NC(=O)[C@H](CCCCN)NC(=O)[C@H](CCCCN)NC(=O)[C@@H](N)CCCCN)C(=O)N[C@@H](Cc1cccc2ccccc12)C(=O)N[C@@H](Cc1ccccc1)C(=O)N[C@@H](Cc1cccc2ccccc12)C(N)=O [Compound 24, Lys-Lys-Lys-Nle-(1-Nal)Ala-Phe-(1-Nal)Ala] (H-KKK[Nle][1Nal]F[1Nal]-NH2; N-terminus assumed) | 16 to 32 | >64 | 16 | 60 | 3 | 41
10 | CC(C)C[C@H](NC(=O)[C@H](CCCCN)NC(=O)[C@H](CCCCN)NC(=O)[C@@H](N)CCCCN)C(=O)N[C@@H](Cc1cccc2ccccc12)C(=O)N[C@@H](Cc1ccccc1)C(=O)N[C@@H](Cc1cccc2ccccc12)C(N)=O [Compound 7, Lys-Lys-Lys-Leu-(1-Nal)Ala-Phe-(1-Nal)Ala] (H-KKKL[1Nal]F[1Nal]-NH2; N-terminus assumed) | 8 | 16 | 16 | 55 | 8 | 140
11 | CC(C)C[C@H](NC(=O)[C@H](CCCCN)NC(=O)[C@H](CCCCN)NC(=O)[C@@H](N)CCCCN)C(=O)N[C@@H](Cc1ccc2ccccc2c1)C(=O)N[C@@H](Cc1ccccc1)C(=O)N[C@@H](Cc1ccc2ccccc2c1)C(N)=O [Compound 9, Lys-Lys-Lys-Leu-(2-Nal)Ala-Phe-(2-Nal)Ala] (H-KKKL[2Nal]F[2Nal]-NH2; N-terminus assumed) | 8 | 16 | 16 | 39 | 46 | –
12 | CC(C)C[C@@H](NC(=O)[C@H](CCCCN)NC(=O)[C@@H](Cc1cccc2ccccc12)NC(=O)[C@@H](Cc1ccccc1)NC(=O)[C@H](N)Cc1cccc2ccccc12)C(=O)N[C@@H](CCCCN)C(=O)N[C@@H](CCCCN)C(N)=O [Compound 20, (1-Nal)ala-phe-(1-Nal)ala-Lys-leu-Lys-Lys] (H-[d1Nal][dF][d1Nal]K[dL]KK-NH2; N-terminus assumed) | 16 | 32 to 64 | >64 | < 8 | – | –
